{"source": "ChEMBL document CHEMBL1122324", "about": "“New antihypertensive cannabinoids” (1983)", "settings_in_all_cases": "route oral", "key": {"[1]": {"test_system": "Rattus norvegicus", "experiment": "percentage decrease in heart rate after 4 hr at a dose of 100 mg/kg administered perorally in rats", "assay_type": "functional"}, "[2]": {"test_system": "Rattus norvegicus", "experiment": "Percentage decrease in systolic blood pressure after 4 hr at 100 mg/kg administered perorally in rats", "assay_type": "functional, Artery"}, "[3]": {"test_system": "Rattus norvegicus", "experiment": "percentage decrease in heart rate after 24 hr at a dose of 30 mg/kg administered perorally in rats", "assay_type": "functional"}, "[4]": {"test_system": "Rattus norvegicus", "experiment": "percentage decrease in heart rate after 24 hr at a dose of 3 mg/kg administered perorally in rats", "assay_type": "functional"}, "[5]": {"test_system": "Rattus norvegicus", "experiment": "percentage decrease in heart rate after 4 hr at a dose of 10 mg/kg administered perorally in rats", "assay_type": "functional"}, "[6]": {"test_system": "Rattus norvegicus", "experiment": "percentage decrease in heart rate after 4 hr at a dose of 3 mg/kg administered perorally in rats", "assay_type": "functional"}, "[7]": {"test_system": "Rattus norvegicus", "experiment": "percentage decrease in heart rate after 6 hr at a dose of 10 mg/kg administered perorally in rats", "assay_type": "functional"}, "[8]": {"test_system": "Rattus norvegicus", "experiment": "percentage decrease in heart rate after 6 hr at a dose of 30 mg/kg administered perorally in rats", "assay_type": "functional"}, "[9]": {"test_system": "Rattus norvegicus", "experiment": "percentage decrease in heart rate after 6 hr at a dose of 3 mg/kg administered perorally in rats", "assay_type": "functional"}, "[10]": {"test_system": "Rattus norvegicus", "experiment": "percentage decrease in heart rate after 1 hr at a dose of 10 mg/kg administered perorally in rats", "assay_type": "functional"}, "[11]": {"test_system": "Rattus norvegicus", "experiment": "percentage decrease in heart rate after 1 hr at a dose of 30 mg/kg administered perorally in rats", "assay_type": "functional"}, "[12]": {"test_system": "Rattus norvegicus", "experiment": "percentage decrease in heart rate after 1 hr at a dose of 3 mg/kg administered perorally in rats", "assay_type": "functional"}, "[13]": {"test_system": "Rattus norvegicus", "experiment": "percentage decrease in heart rate after 24 hr at a dose of 10 mg/kg administered perorally in rats", "assay_type": "functional"}, "[14]": {"test_system": "Rattus norvegicus", "experiment": "Percentage decrease in systolic blood pressure after 6 hr at 3 mg/kg administered perorally in rats", "assay_type": "functional, Artery"}, "[15]": {"test_system": "Rattus norvegicus", "experiment": "Percentage decrease in systolic blood pressure after 6 hr at 30 mg/kg administered perorally in rats", "assay_type": "functional, Artery"}, "[16]": {"test_system": "Rattus norvegicus", "experiment": "Percentage decrease in systolic blood pressure after 1 hr at 30 mg/kg administered perorally in rats", "assay_type": "functional, Artery"}, "[17]": {"test_system": "Rattus norvegicus", "experiment": "Percentage decrease in systolic blood pressure after 1 hr at 10 mg/kg administered perorally in rats", "assay_type": "functional, Artery"}, "[18]": {"test_system": "Rattus norvegicus", "experiment": "Percentage decrease in systolic blood pressure after 1 hr at 3 mg/kg administered perorally in rats", "assay_type": "functional, Artery"}, "[19]": {"test_system": "Rattus norvegicus", "experiment": "Percentage decrease in systolic blood pressure after 24 hr at 10 mg/kg administered perorally in rats", "assay_type": "functional, Artery"}, "[20]": {"test_system": "Rattus norvegicus", "experiment": "Percentage decrease in systolic blood pressure after 24 hr at 3 mg/kg administered perorally in rats", "assay_type": "functional, Artery"}, "[21]": {"test_system": "Rattus norvegicus", "experiment": "Percentage decrease in systolic blood pressure after 4 hr at 10 mg/kg administered perorally in rats", "assay_type": "functional, Artery"}, "[22]": {"test_system": "Rattus norvegicus", "experiment": "Percentage decrease in systolic blood pressure after 24 hr at 30 mg/kg administered perorally in rats", "assay_type": "functional, Artery"}, "[23]": {"test_system": "Rattus norvegicus", "experiment": "Percentage decrease in systolic blood pressure after 4 hr at 30 mg/kg administered perorally in rats", "assay_type": "functional, Artery"}, "[24]": {"test_system": "Rattus norvegicus", "experiment": "Percentage decrease in systolic blood pressure after 6 hr at 10 mg/kg administered perorally in rats", "assay_type": "functional, Artery"}, "[25]": {"test_system": "Rattus norvegicus", "experiment": "Percentage decrease in systolic blood pressure after 4 hr at 3 mg/kg administered perorally in rats", "assay_type": "functional, Artery"}, "[26]": {"test_system": "Rattus norvegicus", "experiment": "percentage decrease in heart rate after 4 hr at a dose of 30 mg/kg administered perorally in rats", "assay_type": "functional"}, "[27]": {"test_system": "Rattus norvegicus", "experiment": "percentage decrease in heart rate after 24 hr at a dose of 30 mg/kg administered perorally in rats.", "assay_type": "functional"}, "[28]": {"test_system": "Rattus norvegicus", "experiment": "percentage decrease in heart rate after 4 hr at a dose of 30 mg/kg administered perorally in rats.", "assay_type": "functional"}, "[29]": {"test_system": "Rattus norvegicus", "experiment": "percentage decrease in heart rate after 6 hr at a dose of 30 mg/kg administered perorally in rats.", "assay_type": "functional"}, "[30]": {"test_system": "Rattus norvegicus", "experiment": "percentage decrease in heart rate after 1 hr at a dose of 30 mg/kg administered perorally in rats.", "assay_type": "functional"}}}
{"smiles": "CCCCCC(C)C(C)c1cc(O)c2c(c1)OC(C)(C)C1CCN(C(=O)CN3CCCCC3)C=C21", "note": "(stereo not drawn)", "values": [{"measurement": "Heart rate", "setting": "[1]", "value": -8, "unit": "%"}, {"measurement": "Decrease in Systolic blood pressure", "setting": "[2]", "value": 10, "unit": "%"}]}
{"smiles": "CC(CCCc1ccc(F)cc1)c1cc(O)c2c(c1)OC(C)(C)C1=C2CN(C(=O)CCCO)CC1", "note": "(stereo not drawn)", "values": [{"measurement": "Heart rate", "setting": "[3]", "value": 15, "unit": "%"}, {"measurement": "Heart rate", "setting": "[4]", "value": -24, "unit": "%"}, {"measurement": "Heart rate", "setting": "[1]", "value": 20, "unit": "%"}, {"measurement": "Heart rate", "setting": "[5]", "value": 18, "unit": "%"}, {"measurement": "Heart rate", "setting": "[6]", "value": 0, "unit": "%"}, {"measurement": "Heart rate", "setting": "[7]", "value": 16, "unit": "%"}, {"measurement": "Heart rate", "setting": "[8]", "value": 9, "unit": "%"}, {"measurement": "Heart rate", "setting": "[9]", "value": 5, "unit": "%"}, {"measurement": "Heart rate", "setting": "[10]", "value": 3, "unit": "%"}, {"measurement": "Heart rate", "setting": "[11]", "value": 2, "unit": "%"}, {"measurement": "Heart rate", "setting": "[12]", "value": -17, "unit": "%"}, {"measurement": "Heart rate", "setting": "[13]", "value": 6, "unit": "%"}, {"measurement": "Decrease in Systolic blood pressure", "setting": "[14]", "value": 9, "unit": "%"}, {"measurement": "Decrease in Systolic blood pressure", "setting": "[15]", "value": 12, "unit": "%"}, {"measurement": "Decrease in Systolic blood pressure", "setting": "[16]", "value": 11, "unit": "%"}, {"measurement": "Decrease in Systolic blood pressure", "setting": "[17]", "value": 11, "unit": "%"}, {"measurement": "Decrease in Systolic blood pressure", "setting": "[18]", "value": -6, "unit": "%"}, {"measurement": "Decrease in Systolic blood pressure", "setting": "[19]", "value": 17, "unit": "%"}, {"measurement": "Decrease in Systolic blood pressure", "setting": "[20]", "value": -8, "unit": "%"}, {"measurement": "Decrease in Systolic blood pressure", "setting": "[21]", "value": 28, "unit": "%"}, {"measurement": "Decrease in Systolic blood pressure", "setting": "[22]", "value": 22, "unit": "%"}, {"measurement": "Decrease in Systolic blood pressure", "setting": "[23]", "value": 26, "unit": "%"}, {"measurement": "Decrease in Systolic blood pressure", "setting": "[24]", "value": 19, "unit": "%"}, {"measurement": "Decrease in Systolic blood pressure", "setting": "[25]", "value": 5, "unit": "%"}, {"measurement": "Decrease in Systolic blood pressure", "setting": "[2]", "value": 32, "unit": "%"}, {"measurement": "Heart rate", "setting": "[26]", "value": 23, "unit": "%"}]}
{"smiles": "CCCCCC(C)C(C)c1cc(O)c2c(c1)OC(C)(C)C1CCN(C(=O)CO)C=C21", "note": "(stereo not drawn)", "values": [{"measurement": "Heart rate", "setting": "[27]", "value": -1, "unit": "%"}, {"measurement": "Heart rate", "setting": "[1]", "value": 19, "unit": "%"}, {"measurement": "Heart rate", "setting": "[28]", "value": -1, "unit": "%"}, {"measurement": "Heart rate", "setting": "[29]", "value": 1, "unit": "%"}, {"measurement": "Heart rate", "setting": "[30]", "value": 6, "unit": "%"}, {"measurement": "Decrease in Systolic blood pressure", "setting": "[15]", "value": 1, "unit": "%"}, {"measurement": "Decrease in Systolic blood pressure", "setting": "[16]", "value": 2, "unit": "%"}, {"measurement": "Decrease in Systolic blood pressure", "setting": "[22]", "value": -1, "unit": "%"}, {"measurement": "Decrease in Systolic blood pressure", "setting": "[23]", "value": -1, "unit": "%"}, {"measurement": "Decrease in Systolic blood pressure", "setting": "[2]", "value": 49, "unit": "%"}]}
